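Cells were grown in 96-well plates and exposed to each compound for 48 hours at five concentrations; endpoints were interpolated linearly between bracketing concentrations, or set to the highest concentration if not reached. GI50: concentration for 50% inhibition of growth.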 The source made the active and inactive calls. Rule as the data show it: active = GI50 up to about 1.1 µM and inactive = higher.
Key:
Assay in all cases: growth of human tumour cells (NCI), 48 h
ACHN = system: ACHN
CCRF-CEM = system: CCRF-CEM
COLO 205 = system: COLO 205
DU-145 = system: DU-145
K562 = system: K562
LOX IMVI = system: LOX IMVI
M14 = system: M14
MDA-MB-231 = system: MDA-MB-231
MDA-MB-435 = system: MDA-MB-435
NCI-H522 = system: NCI-H522
PC-3 = system: PC-3
SK-MEL-2 = system: SK-MEL-2
SK-MEL-5 = system: SK-MEL-5
SN12C = system: SN12C
SNB-19 = system: SNB-19
SNB-75 = system: SNB-75
SR = system: SR
U-251 = system: U-251
NCI-H460 = system: NCI-H460
HOP-92 = system: HOP-92

| SMILES | GI50 (ACHN) | GI50 (CCRF-CEM) | GI50 (COLO 205) | GI50 (DU-145) | GI50 (K562) | GI50 (LOX IMVI) | GI50 (M14) | GI50 (MDA-MB-231) | GI50 (MDA-MB-435) | GI50 (NCI-H522) | GI50 (PC-3) | GI50 (SK-MEL-2) | GI50 (SK-MEL-5) | GI50 (SN12C) | GI50 (SNB-19) | GI50 (SNB-75) | GI50 (SR) | GI50 (U-251) | GI50 (NCI-H460) | GI50 (HOP-92) |
| --- | --- | --- | --- | --- | --- | --- | --- | --- | --- | --- | --- | --- | --- | --- | --- | --- | --- | --- | --- | --- |
| CCOC(=O)/C(=N\OC)C(O)C(F)(F)F (stereo not drawn) | > 100 µM (inactive) | > 100 µM (inactive) | > 100 µM (inactive) | > 100 µM (inactive) | > 100 µM (inactive) | > 100 µM (inactive) | > 100 µM (inactive) | > 100 µM (inactive) | > 100 µM (inactive) | > 100 µM (inactive) | > 100 µM (inactive) | > 100 µM (inactive) | > 100 µM (inactive) | > 100 µM (inactive) | > 100 µM (inactive) | > 100 µM (inactive) | > 100 µM (inactive) | > 100 µM (inactive) | – | – |
| CCCCCCCCCCCCCCCCCCNc1ccn(C2OC(COP(=O)(O)OCC3OC(n4ccc(NC(=O)CCCCCCCCCCCCCCCCC)nc4=O)C(OC(C)=O)C3OC(C)=O)C(OC(C)=O)C2OC(C)=O)c(=O)n1 (stereo not drawn) | > 100 µM (inactive) | > 100 µM (inactive) | > 100 µM (inactive) | > 100 µM (inactive) | 0.0551 µM (active) | > 100 µM (inactive) | > 100 µM (inactive) | > 100 µM (inactive) | > 100 µM (inactive) | > 100 µM (inactive) | > 100 µM (inactive) | > 100 µM (inactive) | > 100 µM (inactive) | > 100 µM (inactive) | > 100 µM (inactive) | > 100 µM (inactive) | > 100 µM (inactive) | > 100 µM (inactive) | > 100 µM (inactive) | – |
| CN1CN(c2ccccc2)C2(CCN(CCC3COc4ccccc4O3)CC2)C1=O (stereo not drawn) | 18.1 µM (inactive) | 17.9 µM (inactive) | 5.6 µM (inactive) | 14.9 µM (inactive) | 20.1 µM (inactive) | 23 µM (inactive) | 15.6 µM (inactive) | 31.9 µM (inactive) | 24.2 µM (inactive) | 13.8 µM (inactive) | 27.8 µM (inactive) | – | 12.9 µM (inactive) | 27.7 µM (inactive) | 19.9 µM (inactive) | 38.2 µM (inactive) | 20.9 µM (inactive) | 27.5 µM (inactive) | – | – |
| CC(=O)O[C@H]1CCn2c3c(c(C)c21)C(=O)C(N1CC1)=C(C)C3=O | > 10 µM (inactive) | > 10 µM (inactive) | 6.12 µM (inactive) | 4.21 µM (inactive) | > 10 µM (inactive) | > 10 µM (inactive) | > 10 µM (inactive) | > 10 µM (inactive) | > 10 µM (inactive) | > 10 µM (inactive) | > 10 µM (inactive) | > 10 µM (inactive) | 2.57 µM (inactive) | 7.43 µM (inactive) | > 10 µM (inactive) | 8.51 µM (inactive) | > 10 µM (inactive) | > 10 µM (inactive) | 3.52 µM (inactive) | – |
| CCc1ccccc1NC(=O)/C=C/c1ccccc1 | > 100 µM (inactive) | > 100 µM (inactive) | > 100 µM (inactive) | > 100 µM (inactive) | > 100 µM (inactive) | > 100 µM (inactive) | > 100 µM (inactive) | > 100 µM (inactive) | > 100 µM (inactive) | > 100 µM (inactive) | > 100 µM (inactive) | > 100 µM (inactive) | > 100 µM (inactive) | > 100 µM (inactive) | > 100 µM (inactive) | > 100 µM (inactive) | > 100 µM (inactive) | 85.9 µM (inactive) | > 100 µM (inactive) | – |
| CCOC(=O)c1csc(NC(=O)CCN2CCOCC2)n1 | 44.5 µM (inactive) | 29.6 µM (inactive) | 52.7 µM (inactive) | 44.7 µM (inactive) | 74.8 µM (inactive) | 93.8 µM (inactive) | 76.2 µM (inactive) | > 100 µM (inactive) | > 100 µM (inactive) | – | 67.6 µM (inactive) | > 100 µM (inactive) | 67.1 µM (inactive) | – | > 100 µM (inactive) | – | 66.2 µM (inactive) | > 100 µM (inactive) | > 100 µM (inactive) | 69.3 µM (inactive) |
| COc1ccc2c(c1)OCC1=C2Oc2ccccc2C1 | 37.4 µM (inactive) | – | 22.5 µM (inactive) | 83.9 µM (inactive) | 22.1 µM (inactive) | 21.4 µM (inactive) | 38 µM (inactive) | 23.5 µM (inactive) | 26.5 µM (inactive) | 22 µM (inactive) | 34.8 µM (inactive) | 26.5 µM (inactive) | 13.9 µM (inactive) | 39.3 µM (inactive) | – | 3.12 µM (inactive) | 26.9 µM (inactive) | 33.5 µM (inactive) | – | – |
| CSc1c(C#N)c(O)n(-c2ccc(Cl)cc2)c(=O)c1C(C)=O | – | 17 µM (inactive) | 24.2 µM (inactive) | 70.6 µM (inactive) | 25.5 µM (inactive) | 34.4 µM (inactive) | 89.9 µM (inactive) | 88.3 µM (inactive) | 88.3 µM (inactive) | 0.433 µM (active) | > 100 µM (inactive) | > 100 µM (inactive) | 89.1 µM (inactive) | > 100 µM (inactive) | 88.5 µM (inactive) | 94.8 µM (inactive) | 30.5 µM (inactive) | > 100 µM (inactive) | > 100 µM (inactive) | – |
